Results on 14 molecules are retold here after patent US20090118282A1, “Compounds and methods for treatment of amyloid-beta-peptide related disorders” (priority 2005, published 2009).

The term pIC50 denotes −log10 of the IC50, conventionally taken in molar units.

The structures appear in SMILES notation. pIC50: −log10 of the molar value. Where a name gives a salt, the structure may show the parent alone.

The subject of the assay is Aβ 40 production in HEK-293 cells overexpressing swAPP751. In words: Inhibition of Aβ 40 production in HEK-293 cells overexpressing swAPP751 (sandwich ELISA). The class given is cell-based. The settings on record: Homo sapiens, HEK293, 7 hours incubation. The protocol: An exemplary assay for the analysis of inhibition of beta-secretase activity utilizes the human embryonic kidney cell line HEK-293 (ATCC Accession No. CRL-1573) stably transfected with APP751 containing the naturally occurring double mutation […] to Asn651Leu652 (numbered for APP751), commonly called the “Swedish mutation” and shown to overproduce Aβ 40 and Aβ 42 (Citron et. al., 1992, Nature 360:672-674). The cells were plated in 10 cm plates and in Dulbecco's Modified Eagle's medium (DMEM, Sigma D-6546) containing 10% fetal bovine serum. After cells are established (3 days post plating), cells are incubated in the presence/absence of the inhibitory compound (diluted in DMSO) at the desired concentration, generally from 0.2 to 20 μM, and with a final concentration of DMSO of 0.1%. Cells were incubated for 7 hours in the presence of phosphoramidon (1 μM) (Sigma). Media and cell lysates were collected, centrifuged, normalized to total protein and assayed for Aβ 40 and Aβ 42 by sandwich ELISA according to the manufacturer's instructions (Biosource International). For Aβ 42 detection, samples are concentrated on YM3 Microcon columns (Millipore). […] Aβ levels are determined by the difference between the Aβ values for the compound treatment and baseline periods. Dose response curves are plotted as percent inhibition versus compound concentration.

In turn, `FC(F)(F)c1ccc2c(SCCCCCOc3ccc(CN4CCNCC4)cc3)ccnc2c1` [Compound 1, 4-(5-(4-((piperazin-1-yl)methyl)phenoxy)pentylthio)-7-(trifluoromethyl)quinoline trihydrochloride] gave a pIC50 of 4.94.
The result for `CCN(CC)C(=O)N1CCN(Cc2ccc(OCCCCCSc3ccnc4cc(C(F)(F)F)ccc34)cc2)CC1` [Compound 2, 4-((4-(5-(7-(trifluoromethyl)quinolin-4-ylthio)pentyloxy)phenyl)methyl)-N,N-diethylpiperazine-1-carboxamide dihydrochloride] reads 5.62; that for `CC(C)(C)C(=O)N1CCN(Cc2ccc(OCCCCCSc3ccnc4cc(C(F)(F)F)ccc34)cc2)CC1` [Compound 3, 1-(4-((4-(5-(7-(trifluoromethyl)quinolin-4-ylthio)pentyloxy)phenyl)methyl)piperazin-1-yl)-2,2-dimethylpropan-1-one dihydrochloride], 5.72.
Molecule `FC(F)(F)c1ccc2c(SCCCCCOc3ccc(CN4CCCCC4)cc3)ccnc2c1` [Compound 5, 4-(5-(4-((piperidin-1-yl)methyl)phenoxy)pentylthio)-7-(trifluoromethyl)quinoline dihydrochloride] gave a pIC50 of 5.29.
`FC(F)(F)c1ccc2c(SCCCCCOc3ccc(CN4CCOCC4)cc3)ccnc2c1` [Compound 8, 4-(5-(4-(morpholinomethyl)phenoxy)pentylthio)-7-(trifluoromethyl)quinoline dihydrochloride] had a pIC50 of 5.29.
Molecule `FC(F)(F)c1ccc2c(SCCCCCOc3ccc(CN4CCCCC4)cc3Cl)ccnc2c1` [Compound 10, 4-(5-(2-Chloro-4-((piperidin-1-yl)methyl)phenoxy)pentylthio)-7-(trifluoromethyl)quinoline dihydrochloride] had a pIC50 of 5.07.
The value for `O=[N+]([O-])c1cc(CN2CCCCC2)ccc1OCCCCCSc1ccnc2cc(C(F)(F)F)ccc12` [Compound 11, 4-(5-(2-nitro-4-((piperidin-1-yl)methyl)phenoxy)pentylthio)-7-(trifluoromethyl)quinoline dihydrochloride] was 5.61; that for `OCc1ccc(OCCCCCSc2ccnc3cc(C(F)(F)F)ccc23)cc1` [Compound 12, (4-(5-(7-(trifluoromethyl)quinolin-4-ylthio)pentyloxy)phenyl)methanol hydrochloride] was 5.14.
As for `Nc1cc(CN2CCCCC2)ccc1OCCCCCSc1ccnc2cc(C(F)(F)F)ccc12` [Compound 13, 2-(5-(7-(Trifluoromethyl)quinolin-4-ylthio)pentyloxy)-5-((piperidin-1-yl)methyl)benzenamine trihydrochloride], the pIC50 was 5.08.
`CCOC(=O)[C@H](Cc1ccc(OCCCCCSc2ccnc3cc(C(F)(F)F)ccc23)cc1)NC(C)=O` [Compound 14, (S)-ethyl 3-(4-(5-(7-(trifluoromethyl)quinolin-4-ylthio)pentyloxy)phenyl)-2-acetamidopropanoate hydrochloride] showed a pIC50 of 6.14.
`CCn1ncc2c(OCCCCCSc3ccnc4cc(C(F)(F)F)ccc34)ccnc21` [Compound 19, 4-(5-(1-Ethyl-1H-pyrazolo[3,4-b]pyridin-4-yloxy)pentylthio)-7-(trifluoromethyl)quinoline dihydrochloride] showed a pIC50 of 4.81.
Regarding `COc1cc(CN2CCOCC2)ccc1OCCCCCOc1ccnc2cc(Cl)ccc12` [Compound 22, 4-(5-(2-Methoxy-4-(morpholinomethyl)phenoxy)pentyloxy)-7-chloroquinoline dihydrochloride], the pIC50 was 5.03.
With `Clc1ccc2c(OCCCCCOc3ccc(CN4CCOCC4)cc3)ccnc2c1` [Compound 23, 4-(5-(4-(morpholinomethyl)phenoxy)pentyloxy)-7-chloroquinoline dihydrochloride], the pIC50 was 5.60.
The value for `COc1cc(CN2CCOCC2)ccc1OCCCCCSc1ccnc2cc(C(F)(F)F)ccc12` [Compound 24, 4-(5-(2-methoxy-4-(morpholinomethyl)phenoxy)pentylthio)-7-(trifluoromethyl)quinoline dihydrochloride] was 5.00.
